Reference: patent US9321762B2, “Quinazoline compounds, method for preparing the same and use thereof” (DEVELOPMENT CENTER FOR BIOTECHNOLOGY, priority 2013, dated 2016)
Read-outs that look alike come from different tables or passages of the source.

Legend:
VEGFR2 kinase = molecular target: T1, VEGFR2 kinase (Homo sapiens, UniProt P35968); experiment: VEGFR2 radiometric kinase assay; format: biochemical; conditions: given as bound; 100 μM ATP; read-out: Inhibition activity, IC50 VEGFR2
T1 construct: VEGFR2 kinase domain alone, Millipore; purchased Millipore
T1 sequence (P35968 834-1162 limits assumed): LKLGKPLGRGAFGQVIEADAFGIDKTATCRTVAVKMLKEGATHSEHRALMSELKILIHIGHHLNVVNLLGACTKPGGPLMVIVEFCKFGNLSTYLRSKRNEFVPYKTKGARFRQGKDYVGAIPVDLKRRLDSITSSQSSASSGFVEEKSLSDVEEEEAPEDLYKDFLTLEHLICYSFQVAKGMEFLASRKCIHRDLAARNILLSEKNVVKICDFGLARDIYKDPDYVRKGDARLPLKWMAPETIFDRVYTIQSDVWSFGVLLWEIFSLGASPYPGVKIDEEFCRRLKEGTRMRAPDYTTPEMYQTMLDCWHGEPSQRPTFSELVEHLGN
Experimental: (§1) The inhibitory activity against VEGFR2 or EGFR was determined by radiometric kinase assay. The experimental condition for VEGFR2 kinase assay was 6.25 ng of recombinant VEGFR2 kinase (VEGFR2 kinase domain alone, Millipore), 5 μg of substrate Poly(Glu-Tyr) (4:1, Sigma), kinase reaction buffer (20 mM MOPS pH 7.0, 1 mM EDTA, 5% glycerol, 0.01% Brij-35, 0.1% β-mercaptoethanol, 1 mg/mL BSA, 100 μM ATP, and 0.1 μCi per well [^33P] ATP (specific activity 3000 Ci/mmol, PerkinElmer)), and the test compound (diluted with 4% DMSO) or DMSO alone (as a control) in a final volume of 25 μL. Reactions were incubated at 30° C. for 30 min and stopped by adding 3% phosphoric acid, harvested onto a 96-well GF/B UniFilter (PerkinElmer) using a unifilter harvester (PerkinElmer), and counted with a TopCount microplate scintillation counter (PerkinElmer).
(§2) Results of inhibition activity against VEGFR2 and EGFR kinases by the selected compounds, which have IC50 values on B-Raf kinase <300 nM, are summarized in Table 6.

[1] = test system: A375 melanoma cells and COLO205 colon cancer cells; experiment: Cell proliferation assay (CellTiter-96); format: cell-based; conditions: Homo sapiens; A375 or COLO205, 72 hours treatment; read-out: Cytotoxicity IC50 for A375 or COLO205
Experimental: The anti-proliferative activities of compounds of formula (I) against B-Raf(V600E) mutant human cancer cell lines, A375 melanoma cells and COLO205 colon cancer cells, were measured using the CellTiter™-96 assay kit (Promega) following the manufacturer's instructions. In brief, the cells were maintained in DMEM containing 10% FCS and incubated at 37° C. in 5% CO2 atmosphere. Cells were plated at a density of 2,000 cells/well on a 96-well plate and incubated for 24 h. Then, these cells were treated with different concentrations of the test compounds and incubated for another 72 hours. At the end of the incubation, CellTiter™-96 Aqueous One Solution Reagent (Promega) was added and incubated for another 4.0 hours. Cell viability was determined by measuring absorbance at 490 nm using EMax® microplate reader (Molecular Devices). Data were processed and analyzed using GraphPad Prism.

EGFR kinase = molecular target: T2, EGFR kinase (Homo sapiens, UniProt P00533); experiment: EGFR radiometric kinase assay; format: biochemical; conditions: 100 μM ATP, read-out: Inhibition activity, IC50 EGFR
T2 construct: EGFR kinase domain alone, Millipore; purchased Millipore
T2 sequence (P00533 712-979 limits assumed): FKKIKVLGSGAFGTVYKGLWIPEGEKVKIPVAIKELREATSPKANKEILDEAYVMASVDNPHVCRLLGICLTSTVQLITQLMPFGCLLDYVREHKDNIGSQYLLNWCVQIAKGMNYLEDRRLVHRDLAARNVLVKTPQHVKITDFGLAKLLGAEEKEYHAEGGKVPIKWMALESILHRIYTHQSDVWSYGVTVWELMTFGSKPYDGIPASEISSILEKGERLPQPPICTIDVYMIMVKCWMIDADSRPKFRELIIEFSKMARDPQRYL
Experimental: as §1
The experimental condition for EGFR kinase assay was 25 ng of EGFR kinase (EGFR kinase domain alone, Millipore), 3 μg of the substrate poly(Glu-Tyr), (Sigma), kinase reaction buffer (10 mM MOPS pH 7.0, 0.3 mM EDTA, 0.5% glycerol, 0.001% Brij-35, 10 mM MnCl2, 0.1 mg/ml BSA, 100 μM ATP, and 0.1 μCi per well [^33P]ATP (specific activity 3000 Ci/mmol, PerkinElmer)), and the test compound (diluted with 4% DMSO) or DMSO (as a control) in a final volume of 25 μL. Reactions were incubated at 30° C. for 30 min and stopped by adding 3% phosphoric acid, harvested onto a 96-well GF/B UniFilter (PerkinElmer) using a unifilter harvester (PerkinElmer), and counted with a TopCount microplate scintillation counter (PerkinElmer).
as §2

B-Raf kinase = molecular target: T3, B-Raf kinase (Homo sapiens, UniProt P15056); experiment: B-Raf kinase assay ([33P] incorporation into MEK1(K97R)); format: biochemical; conditions: class symbols; 8 μM ATP; read-out: IC50 against B-Raf kinase
T3 construct: purchased Upstate Biotechnology
T3 sequence (P15056 whole entry): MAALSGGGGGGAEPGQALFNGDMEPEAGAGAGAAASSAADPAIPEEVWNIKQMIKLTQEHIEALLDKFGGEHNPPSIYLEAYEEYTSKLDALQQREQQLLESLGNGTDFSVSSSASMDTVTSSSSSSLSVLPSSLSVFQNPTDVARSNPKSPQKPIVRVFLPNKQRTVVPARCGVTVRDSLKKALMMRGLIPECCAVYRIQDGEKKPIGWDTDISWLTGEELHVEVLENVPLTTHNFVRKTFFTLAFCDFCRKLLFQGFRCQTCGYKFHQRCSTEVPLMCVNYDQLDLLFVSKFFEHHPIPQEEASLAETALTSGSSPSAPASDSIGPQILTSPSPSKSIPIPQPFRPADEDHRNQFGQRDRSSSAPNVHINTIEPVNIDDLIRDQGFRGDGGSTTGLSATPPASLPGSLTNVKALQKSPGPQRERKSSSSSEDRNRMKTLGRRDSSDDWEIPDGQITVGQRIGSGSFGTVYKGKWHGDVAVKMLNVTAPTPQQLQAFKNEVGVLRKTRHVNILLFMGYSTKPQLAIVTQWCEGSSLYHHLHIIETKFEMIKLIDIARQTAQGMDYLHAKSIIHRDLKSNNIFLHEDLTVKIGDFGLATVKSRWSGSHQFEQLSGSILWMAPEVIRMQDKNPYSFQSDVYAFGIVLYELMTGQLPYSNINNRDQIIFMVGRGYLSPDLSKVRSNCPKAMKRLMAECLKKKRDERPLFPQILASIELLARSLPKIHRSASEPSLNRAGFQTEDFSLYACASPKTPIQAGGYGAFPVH
Method in brief: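 Recombinant B-Raf (5 ng) phosphorylating 500 ng MEK1(K97R) with 8 μM ATP plus [33P]ATP, pH 7.5 Tris buffer, 30 min at 30 °C. Radiolabel incorporation counted by filter-binding scintillation; IC50 from 3-fold serial dilutions run in duplicate.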

B-Raf(V600E) kinase = molecular target: T4, B-Raf(V600E) kinase (Homo sapiens, UniProt P15056, V600E); experiment: B-Raf(V600E) kinase assay ([33P] incorporation into MEK1(K97R)); format: biochemical; conditions: class symbols; 8 μM ATP; read-out: IC50 against B-Raf(V600E) kinase
T4 construct: purchased Upstate Biotechnology
T4 sequence (P15056 whole entry V600E): as the sequence (P15056 whole entry) above, with V600E counted along it
Experimental: (§3) Inhibition of kinase activity by a test compound disclosed herein was estimated by quantifying the amount of [^33P] incorporation of a substrate in the presence of the test compound. Standard assay conditions were 5 ng of recombinant B-Raf(V600E) kinase (Upstate Biotechnology) with 500 ng MEK1 (K97R) in assay buffer (8 μM ATP, 0.5 μCi [^33P] ATP (specific activity 3000 Ci/mmol, PerkinElmer), 50 mM Tris/HCl (pH7.5), and 1 mM EGTA, 1 mM Na3VO4, 1% 2-mercaptoethanol, 0.1% Brij 35, and 0.2 mg/ml BSA), and the test compound (diluted with 4% DMSO) or DMSO alone (as a control) in a final volume of 25 μL. Reactions were incubated at 30° C. for 30 min and stopped by adding 3% phosphoric acid, harvested onto a 96-well GF/B UniFilter (PerkinElmer) using a unifilter harvester (PerkinElmer), and counted with a TopCount microplate scintillation counter (PerkinElmer). The IC50 values of inhibitors were determined after carrying out assays at 3-fold serially diluted concentrations of each compound in duplication. The results were analyzed using linear regression software (GraphPad Prism 4; GraphPad Software Inc.).

C-Raf kinase = molecular target: T5, C-Raf kinase (Homo sapiens, UniProt P04049); experiment: C-Raf kinase assay ([33P] incorporation into MEK1(K97R)); format: biochemical; conditions: class symbols; 8 μM ATP; read-out: IC50 against C-Raf kinase
T5 construct: purchased Upstate Biotechnology
T5 sequence (P04049 whole entry): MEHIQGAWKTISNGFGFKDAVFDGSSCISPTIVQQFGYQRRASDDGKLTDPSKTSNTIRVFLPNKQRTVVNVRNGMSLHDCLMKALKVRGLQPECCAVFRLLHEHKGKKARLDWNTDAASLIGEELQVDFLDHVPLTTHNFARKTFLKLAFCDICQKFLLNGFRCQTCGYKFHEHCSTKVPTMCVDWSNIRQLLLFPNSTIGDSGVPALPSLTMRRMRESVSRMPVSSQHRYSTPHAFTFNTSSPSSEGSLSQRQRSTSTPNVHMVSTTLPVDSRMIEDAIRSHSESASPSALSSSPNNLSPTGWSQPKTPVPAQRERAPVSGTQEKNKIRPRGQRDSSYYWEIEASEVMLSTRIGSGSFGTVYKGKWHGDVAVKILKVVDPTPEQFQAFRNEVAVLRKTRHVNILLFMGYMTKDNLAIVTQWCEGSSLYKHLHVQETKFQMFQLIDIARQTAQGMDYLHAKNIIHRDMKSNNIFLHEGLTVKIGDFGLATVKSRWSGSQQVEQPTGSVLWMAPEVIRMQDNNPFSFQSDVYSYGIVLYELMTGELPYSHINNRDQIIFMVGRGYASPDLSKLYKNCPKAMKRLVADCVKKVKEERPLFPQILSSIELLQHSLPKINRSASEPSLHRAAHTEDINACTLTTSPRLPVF
Experimental: as §3, with “were 2” for “were 5”, “recombinant C-Raf” for “recombinant B-Raf(V600E)”

Row | IC50 (VEGFR2 kinase) | IC50 (EGFR kinase; class symbols) | IC50 (B-Raf kinase) | IC50 (B-Raf(V600E) kinase) | IC50 (C-Raf kinase) | IC50 (EGFR kinase; given as bound) | SMILES | IC50 [1]
1 | > 3 µM | 0.3 to 1 µM | < 0.3 µM | < 0.3 µM | < 0.3 µM |  | CCCS(=O)(=O)Nc1ccc(F)c(Nc2ncnc3ccc(-c4cccc(C#N)n4)cc23)c1F [compound 63, N-(3-(6-(6-cyanopyridin-2-yl)quinazolin-4-ylamino)-2,4-difluorophenyl)propane-1-sulfonamide] | < 2 µM
2 | > 3 µM |  | < 0.3 µM | < 0.3 µM | 0.3 to 1 µM | > 3 µM | CCCS(=O)(=O)Nc1ccc(F)c(Nc2ncnc3cc(OCCN4CCOCC4)c(-c4cccnc4F)cc23)c1F [compound 8, N-(2,4-difluoro-3-(6-(2-fluoropyridin-3-yl)-7-(2-morpholinoethoxy)quinazolin-4-ylamino)phenyl)propane-1-sulfonamide] | < 2 µM
3 | > 3 µM | 1 to 3 µM | < 0.3 µM | < 0.3 µM | 0.3 to 1 µM |  | CCCS(=O)(=O)Nc1ccc(F)c(Nc2ncnc3ccc(-c4cccc(OCCOC)n4)cc23)c1F [compound 38, N-(2,4-difluoro-3-(6-(6-(2-methoxyethoxy)pyridin-2-yl)quinazolin-4-ylamino)phenyl)propane-1-sulfonamide] | < 2 µM
4 | > 3 µM |  | < 0.3 µM | < 0.3 µM | < 0.3 µM | > 3 µM | CCCS(=O)(=O)Nc1ccc(F)c(Nc2ncnc3ccc(-c4cnccc4F)cc23)c1F [compound 66, N-(2,4-difluoro-3-(6-(4-fluoropyridin-3-yl)quinazolin-4-ylamino)phenyl)propane-1-sulfonamide] | < 2 µM
5 | > 3 µM | 0.3 to 1 µM | < 0.3 µM | < 0.3 µM | < 0.3 µM |  | CCCS(=O)(=O)Nc1ccc(F)c(Nc2ncnc3ccc(-c4cccc(C(F)(F)F)n4)cc23)c1F [compound 62, N-(2,4-difluoro-3-(6-(6-(trifluoromethyl)pyridin-2-yl)quinazolin-4-ylamino)phenyl)propane-1-sulfonamide] | < 2 µM
6 | > 3 µM | 1 to 3 µM | < 0.3 µM | < 0.3 µM | < 0.3 µM |  | CCCS(=O)(=O)Nc1ccc(F)c(Nc2ncnc3ccc(-c4ccc(N5CCOCC5)nc4)cc23)c1F [compound 2, N-(2,4-difluoro-3-(6-(6-morpholinopyridin-3-yl)quinazolin-4-ylamino)phenyl)propane-1-sulfonamide] | < 2 µM
7 | > 3 µM |  | < 0.3 µM | < 0.3 µM | < 0.3 µM | > 3 µM | CCCS(=O)(=O)Nc1ccc(F)c(Nc2ncnc3cc(F)c(-c4cccnc4F)cc23)c1F [compound 7, N-(2,4-difluoro-3-(7-fluoro-6-(2-fluoropyridin-3-yl)quinazolin-4-ylamino)phenyl)propane-1-sulfonamide] | < 2 µM
8 | > 3 µM |  | < 0.3 µM | 0.3 to 1 µM | 0.3 to 1 µM | > 3 µM | CCCS(=O)(=O)Nc1ccc(F)c(Nc2ncnc3ccc(-c4cnc(N)nc4)cc23)c1F [compound 50, N-(3-(6-(2-aminopyrimidin-5-yl)quinazolin-4-ylamino)-2,4-difluorophenyl)propane-1-sulfonamide] | < 2 µM
9 | > 3 µM |  | < 0.3 µM | < 0.3 µM | < 0.3 µM | > 3 µM | CCCS(=O)(=O)Nc1ccc(F)c(Nc2ncnc3ccc(-c4cnc(OC)c([N+](=O)[O-])c4)cc23)c1F [compound 58, N-(2,4-difluoro-3-(6-(6-methoxy-5-nitropyridin-3-yl)quinazolin-4-ylamino)phenyl)propane-1-sulfonamide] | < 2 µM
10 | > 3 µM |  | < 0.3 µM | < 0.3 µM | < 0.3 µM | > 3 µM | CCCCS(=O)(=O)Nc1ccc(F)c(Nc2ncnc3ccc(-c4cccnc4F)cc23)c1F [compound 18, N-(2,4-difluoro-3-(6-(2-fluoropyridin-3-yl)quinazolin-4-ylamino)phenyl)butane-1-sulfonamide] | < 2 µM
11 | > 3 µM | 1 to 3 µM | < 0.3 µM | < 0.3 µM | 0.3 to 1 µM |  | CCCS(=O)(=O)Nc1ccc(F)c(Nc2ncnc3ccc(-c4ccnc(F)c4)cc23)c1F [compound 24, N-(2,4-difluoro-3-(6-(2-fluoropyridin-4-yl)quinazolin-4-ylamino)phenyl)propane-1-sulfonamide] | < 2 µM
12 | > 3 µM | 0.3 to 1 µM | < 0.3 µM | < 0.3 µM | < 0.3 µM |  | CCCS(=O)(=O)Nc1ccc(F)c(Nc2ncnc3cc(OC)c(-c4cccnc4F)cc23)c1F [compound 28, N-(2,4-difluoro-3-(6-(2-fluoropyridin-3-yl)-7-methoxyquinazolin-4-ylamino)phenyl)propane-1-sulfonamide] | < 2 µM
